Test results from publication PMC10682503, “Structural and functional basis of inositol hexaphosphate stimulation of NHEJ through stabilization of Ku-XLF interaction” (Nucleic Acids Research, 2023).

Tests used:
[1] = target: T1, Ku-2E (Ku70-K357E, Ku80-K481E) (Homo sapiens, UniProt P12956+P13010, K357E/K481E); test: ITC, Ku-2E mutant with IP6; type: binding
T1 construct: 10x His-tag with TEV site (same vector as KuFL) (N); made in house; host or cells: Sf21 insect cells
Description: (§1) Purification of Ku full-length (KuFL) for cryo-EM experiments was carried out as described previously ([5]). Expression and purification of KuFL for biophysical experiments was carried out as described previously ([20]). The full-length human Ku heterodimer subunits (Ku70 1–609, Ku80 1–732) were cloned into a Multibac vector ([21]). The construct has a 10× His-tag and a TEV site on the N-terminus of Ku80 and no-tag on Ku70. Protein production was initiated in Sf21 cells by infection with the baculovirus stock at MOI of 5 × 10^−3 and cells were collected 5–6 days after the infection (3–4 days after the proliferation arrest). Cells were sonicated and the supernatant was incubated with Benzonase (300 units for 30 min at 4°C). The Ku heterodimer was purified on a NiNTA-Agarose affinity column (Protino, Macherey Nagel) with a 1 M NaCl wash step to remove DNA excess. The eluted Ku was then bound onto an anion exchange column (Resource Q, Cytiva) equilibrated in 20 mM Tris pH 8.0, 50 mM NaCl, 50 mM KCl, 10 mM β-mercaptoethanol and eluted with a salt gradient. […]
(§2) Calorimetry. Interactions between KuFL and inositol phosphates (IPs) (IP6 and IP6 analogues) were determined by Isothermal Titration Calorimetry (ITC) using a VP-ITC calorimeter (Malvern). […] The free energy of binding (ΔG) and the entropy (ΔS) were determined using the classical thermodynamic formula, ΔG = - RT ln(Ka) and ΔG = ΔH - TΔS. […]

[2] = target: T2, Ku-4E (Ku70 H359E-H360E/Ku80 K413E H414E) (Homo sapiens, UniProt P12956+P13010, H359E/H360E/H414E/K413E); test: ITC, Ku-4E mutant with IP6; type: binding
T2 construct: 10x His-tag with TEV site (same vector as KuFL) (N); made in house; host or cells: Sf21 insect cells
T2 sequence (P12956 whole entry H359E/H360E): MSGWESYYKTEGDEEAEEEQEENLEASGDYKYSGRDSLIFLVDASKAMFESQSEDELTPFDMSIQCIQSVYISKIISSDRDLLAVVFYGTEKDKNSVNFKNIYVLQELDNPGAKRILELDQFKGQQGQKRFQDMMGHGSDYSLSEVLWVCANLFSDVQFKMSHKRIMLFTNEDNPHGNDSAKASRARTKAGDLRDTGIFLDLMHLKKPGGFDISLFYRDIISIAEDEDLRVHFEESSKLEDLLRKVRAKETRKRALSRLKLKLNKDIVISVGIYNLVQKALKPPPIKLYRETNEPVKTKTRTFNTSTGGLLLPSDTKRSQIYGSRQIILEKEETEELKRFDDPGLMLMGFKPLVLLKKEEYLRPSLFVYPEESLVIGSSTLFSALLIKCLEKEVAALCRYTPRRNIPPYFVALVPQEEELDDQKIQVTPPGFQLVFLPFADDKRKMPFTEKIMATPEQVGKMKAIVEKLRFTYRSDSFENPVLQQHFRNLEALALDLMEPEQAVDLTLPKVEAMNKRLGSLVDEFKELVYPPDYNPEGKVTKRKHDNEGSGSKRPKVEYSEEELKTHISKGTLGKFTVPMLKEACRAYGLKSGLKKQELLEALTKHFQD
T2 sequence (P13010 whole entry K413E/H414E): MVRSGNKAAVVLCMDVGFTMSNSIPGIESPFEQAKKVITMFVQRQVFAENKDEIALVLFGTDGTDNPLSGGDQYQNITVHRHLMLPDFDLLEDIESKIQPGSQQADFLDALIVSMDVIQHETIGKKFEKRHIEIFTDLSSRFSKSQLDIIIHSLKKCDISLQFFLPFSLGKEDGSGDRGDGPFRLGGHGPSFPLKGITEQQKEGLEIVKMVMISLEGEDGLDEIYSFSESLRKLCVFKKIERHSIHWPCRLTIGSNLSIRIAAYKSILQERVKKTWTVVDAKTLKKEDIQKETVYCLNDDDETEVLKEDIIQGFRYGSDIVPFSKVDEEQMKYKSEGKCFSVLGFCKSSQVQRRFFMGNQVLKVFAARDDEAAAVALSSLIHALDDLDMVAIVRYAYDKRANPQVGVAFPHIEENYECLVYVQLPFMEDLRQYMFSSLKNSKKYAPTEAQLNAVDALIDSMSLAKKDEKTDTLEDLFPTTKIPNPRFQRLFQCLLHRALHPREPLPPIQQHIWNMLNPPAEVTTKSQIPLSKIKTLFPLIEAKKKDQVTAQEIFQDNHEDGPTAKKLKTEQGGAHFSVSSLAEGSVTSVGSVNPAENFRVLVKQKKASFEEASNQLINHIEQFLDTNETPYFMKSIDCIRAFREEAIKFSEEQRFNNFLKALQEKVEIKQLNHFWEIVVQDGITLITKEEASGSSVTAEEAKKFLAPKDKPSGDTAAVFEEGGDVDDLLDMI
Description: as §1, §2

T1 sequence (P12956 whole entry K357E): as the sequence (P12956 whole entry H359E/H360E) above, with K357E, E359H, E360H counted along it
T1 sequence (P13010 whole entry K481E): as the sequence (P13010 whole entry K413E/H414E) above, with E413K, E414H, K481E counted along it

## O=P(O)(O)O[C@H]1[C@H](OP(=O)(O)O)[C@@H](OP(=O)(O)O)[C@H](OP(=O)(O)O)[C@@H](OP(=O)(O)O)[C@H]1OP(=O)(O)O [IP6, inositol hexaphosphate]
[1]
  interaction with IP6 as measured by ITC: no interaction
[2]
  interaction with IP6 as measured by ITC: no interaction
